Results from the NIST ThermoML archive (doi:10.1021/je7003758).

Assay: xn = mol fraction of the nth substance listed
Conditions: 298.15 K, Liquid

ClCCCCCCCl [1,6-dichlorohexane] + CN1CCCC1=O
mass density [kg/m3]
Conditions | x2 = 0.1182 | x2 = 0.2016 | x2 = 0.3079 | x2 = 0.4114 | x2 = 0.5049 | x2 = 0.6008 | x2 = 0.7023 | x2 = 0.8009 | x2 = 0.8972
100 kPa | 1060.7 | 1058.4 | 1055.4 | 1052 | 1049 | 1045.6 | 1041.6 | 1037.5 | 1033.1
500 kPa | 1060.9 | 1058.7 | 1055.6 | 1052.3 | 1049.2 | 1045.8 | 1041.8 | 1037.7 | 1033.4
1000 kPa | 1061.3 | 1059.1 | 1056 | 1052.6 | 1049.5 | 1046.1 | 1042.1 | 1038 | 1033.6
1500 kPa | 1061.6 | 1059.4 | 1056.3 | 1052.9 | 1049.8 | 1046.4 | 1042.4 | 1038.3 | 1033.9
2000 kPa | 1062 | 1059.7 | 1056.6 | 1053.3 | 1050.1 | 1046.7 | 1042.7 | 1038.6 | 1034.2
2500 kPa | 1062.3 | 1060 | 1056.9 | 1053.6 | 1050.5 | 1047 | 1043 | 1038.9 | 1034.4
3000 kPa | 1062.6 | 1060.4 | 1057.3 | 1053.9 | 1050.8 | 1047.3 | 1043.3 | 1039.1 | 1034.7
3500 kPa | 1063 | 1060.8 | 1057.6 | 1054.3 | 1051.1 | 1047.6 | 1043.6 | 1039.4 | 1035
4000 kPa | 1063.3 | 1061.1 | 1057.9 | 1054.6 | 1051.4 | 1047.9 | 1043.9 | 1039.7 | 1035.3
4500 kPa | 1063.7 | 1061.4 | 1058.3 | 1054.9 | 1051.7 | 1048.2 | 1044.2 | 1040 | 1035.5
5000 kPa | 1064 | 1061.8 | 1058.6 | 1055.2 | 1052 | 1048.5 | 1044.4 | 1040.3 | 1035.8
5500 kPa | 1064.4 | 1062.1 | 1058.9 | 1055.5 | 1052.4 | 1048.9 | 1044.7 | 1040.5 | 1036.1
5900 kPa | – | – | – | – | – | 1049.2 | – | – | –
6000 kPa | 1064.7 | 1062.4 | 1059.4 | 1055.8 | 1052.7 | – | 1045 | 1040.8 | 1036.4
6500 kPa | 1065 | 1062.8 | 1059.6 | 1056.1 | 1053 | 1049.4 | 1045.3 | 1041.1 | 1036.6
7000 kPa | 1065.4 | 1063.1 | 1059.9 | 1056.5 | 1053.3 | 1049.7 | 1045.6 | 1041.4 | 1036.9
7500 kPa | 1065.7 | 1063.5 | 1060.2 | – | 1053.6 | 1050 | 1045.9 | 1041.7 | 1037.2
7600 kPa | – | – | – | 1056.7 | – | – | – | – | –
8000 kPa | 1066.1 | 1063.7 | 1060.5 | 1057.1 | 1054 | 1050.3 | 1046.2 | 1041.9 | 1037.4
8500 kPa | 1066.5 | 1064 | 1060.8 | 1057.4 | 1054.2 | 1050.6 | 1046.5 | 1042.2 | 1037.8
8900 kPa | 1066.7 | – | – | – | – | – | – | – | –
9000 kPa | – | 1064.4 | 1061.2 | 1057.7 | 1054.5 | 1050.9 | 1046.8 | 1042.5 | 1038
9500 kPa | 1067 | 1064.8 | 1061.5 | 1058 | 1054.9 | 1051.2 | 1047.1 | 1042.8 | 1038.2
10000 kPa | 1067.4 | 1065.2 | 1061.9 | 1058.4 | 1055.2 | 1051.6 | 1047.4 | 1043.1 | 1038.6
10500 kPa | 1067.8 | 1065.4 | 1062.2 | 1058.7 | 1055.6 | 1051.9 | 1047.7 | 1043.4 | 1038.8
11000 kPa | 1068.1 | 1065.8 | 1062.5 | 1059 | 1055.9 | 1052.2 | 1048 | 1043.6 | 1039.1
11500 kPa | 1068.4 | 1066.1 | 1062.8 | 1059.3 | 1056.2 | 1052.4 | 1048.2 | 1044 | 1039.3
12000 kPa | 1068.8 | 1066.4 | 1063.1 | 1059.6 | 1056.4 | 1052.7 | 1048.5 | 1044.2 | 1039.6
12500 kPa | 1069.1 | 1066.7 | 1063.5 | 1059.9 | 1056.7 | 1053 | 1048.8 | 1044.5 | 1039.8
13000 kPa | 1069.4 | 1067 | 1063.8 | 1060.3 | 1057 | 1053.3 | 1049.2 | 1044.8 | 1040.1
13400 kPa | – | – | – | – | – | – | 1049.5 | – | –
13500 kPa | 1069.7 | 1067.4 | 1064.1 | 1060.6 | 1057.3 | 1053.6 | – | 1045.1 | 1040.4
13900 kPa | – | – | – | – | 1057.6 | – | – | – | –
14000 kPa | 1070 | 1067.6 | 1064.4 | 1060.9 | – | 1053.9 | 1049.7 | 1045.3 | 1040.6
14400 kPa | – | – | – | – | – | – | – | 1045.6 | –
14500 kPa | 1070.4 | 1068 | 1064.7 | 1061.2 | 1057.9 | 1054.2 | 1050 | – | 1041
15000 kPa | 1070.7 | 1068.3 | 1065 | 1061.5 | 1058.2 | 1054.5 | 1050.3 | 1045.9 | 1041.2
15400 kPa | – | – | – | 1061.8 | – | – | – | – | –
15500 kPa | 1071 | 1068.6 | 1065.4 | – | 1058.5 | 1054.8 | 1050.6 | 1046.2 | 1041.4
16000 kPa | 1071.4 | 1069 | 1065.6 | 1062 | 1058.8 | 1055.1 | 1050.8 | 1046.4 | 1041.7
16500 kPa | 1071.7 | 1069.2 | 1065.9 | 1062.4 | 1059.1 | 1055.4 | 1051 | 1046.6 | 1041.9
16900 kPa | – | – | 1066.2 | – | – | – | – | – | –
17000 kPa | 1072 | 1069.6 | – | 1062.7 | 1059.4 | 1055.6 | 1051.3 | 1046.9 | 1042.2
17500 kPa | 1072.3 | 1069.8 | 1066.5 | – | 1059.7 | 1055.9 | 1051.6 | 1047.2 | 1042.5
17600 kPa | – | – | – | 1063 | – | – | – | – | –
17900 kPa | 1072.6 | – | – | – | – | 1056.2 | – | – | –
18000 kPa | – | 1070.2 | 1066.7 | 1063.3 | 1059.9 | – | 1051.8 | 1047.5 | 1042.7
18400 kPa | – | – | – | – | – | – | – | 1047.6 | –
18500 kPa | 1072.9 | 1070.5 | 1067.1 | 1063.5 | 1060.2 | 1056.5 | 1052.1 | – | 1043
19000 kPa | 1073.3 | 1070.8 | 1067.4 | 1063.9 | 1060.6 | 1056.8 | 1052.4 | 1048 | 1043.2
19400 kPa | – | – | 1067.7 | 1064.1 | – | – | – | – | –
19500 kPa | 1073.6 | 1071.1 | – | – | 1060.9 | 1057 | 1052.8 | 1048.2 | 1043.5
20000 kPa | 1073.9 | 1071.4 | 1068.2 | – | 1061.2 | 1057.5 | 1053 | 1048.7 | 1043.8
20100 kPa | – | – | – | 1064.5 | – | – | – | – | –
